From US8119616B2, “Formulation of quinazoline based EGFR inhibitors containing a zinc binding moiety” (Curis, Inc., priority 2007, dated 2012)

Key:
[1] = male, CD-1, mouse, in vivo, iv, 9 day
Description: Single dosing MTD in mice • a. CD-1 mice, male, 24-26 gram • b. Dosing at 0, 50, 100, 200, 400 mg/kg, iv infusion 2 min • c. 8 mice per group
(§1) Stock solution is diluted with 30% CAPTISOL before use.

[2] = tested on: various cancer cell lines; experiment: Anti-proliferative activity in various cancer cell lines (Table D, FIG. 3); type: cell-based; conditions: five major types of cancer (lung, breast, prostate, colon, and pancreas)
Description: Cell Proliferation Assay:
Cancer cell lines were plated at 5,000 to 10,000 per well in 96-well flatted bottomed plates with various concentration of compounds. The cells were incubated with compounds for 72 hours in the presence of 0.5% of fetal bovine serum. Growth inhibition was accessed by adenosine triphosphate (ATP) content assay using Perkin Elmer ATPlite kit. ATPlite is an ATP monitoring system based on firefly luciferase. Briefly, 25 μl of mammalian cell lysis solution was added to 50 μl of phenol red-free culture medium per well to lyse the cells and stabilize the ATP. 25 μl of substrate solution was then added to the well and subsequently the luminescence was measured.
Table D illustrates the potency of compounds of the invention.

[3] = both, Sprague Dawley, rat, in vivo, iv, 7 days
Description: 7-day multiple dosing MTD in rats • a. Sprague Dawley, male and female, 220-250 gram • b. Dose, 25, 50, 100, 200 mg/kg/d) iv infusion 5 min • c. 6 per group (3 male and 3 female) • d. Blood and organs will be collected 2 hr after last dosing on Day 7 for hematology Compound Preparation
as §1

EGFR = EGFR phosphorylation in MDA-MB-468 breast cancer cell line; type: cell-based; conditions: FIG. 2
Description: Allowed A431 cell growth in a T75 flask using standard tissue culture procedures until cells reach near confluency (˜1.5×10^7) cells; D-MEM, 10% FBS). Under sterile conditions dispensed 100 μl of the cell suspension per well in 96-well microplates (x cells plated per well). Incubated cells and monitor cell density until confluency is achieved with well-to-well consistency; approximately three days. Removed complete media from plate wells by aspiration or manual displacement. Replaced media with 50 μl of pre-warmed serum free media per well and incubated 4 to 16 hours. Made two fold serial dilutions of inhibitor using pre-warmed D-MEM so that the final concentration of inhibitor range from 10 μM to 90 pM. Removed media from A431 cell plate. Added 100 μl of serial diluted inhibitor into cells and incubate 1 to 2 hours. Removed inhibitor from plate wells by aspiration or manual displacement. Added either serum free media for resting cells (mock) or serum free media with 100 ng/ml EGF. Used 100 μl of resting/activation media per well. Allowed incubation at 37° C. for 7.5 minutes. Removed activation or stimulation media manually or by aspiration. Immediately fixed cells with 4% formaldehyde in 1×PBS. […] Determined the ratio of […] protein (700/800) using Odyssey software and plot the results in Graphpad Prism (V4.0a).

## C#Cc1cccc(Nc2ncnc3cc(OC)c(OCCCCCCC(=O)NO)cc23)c1 [Compound 12, 7-(4-(3-ethynylphenylamino)-7-methoxyquinazolin-6-yloxy)-N-hydroxyheptanamide]
[1]
  dose that did not result in a significant change in body weight: up to 200 mg/kg
[2]
  response of cell lines compared with a combination of erlotinib and SAHA: responded better to compound 12 than a combination of erlotinib and SAHA
[3]
  dose that did not result in a significant change in body weight or food consumption: up to 100 mg/kg
EGFR
  inhibition of EGFR phosphorylation compared with Erlotinib: improvement in inhibition
